For data set [1], the target named is GABA-A receptor; agonist GABA site (Homo sapiens) (UniProt P14867+P47870+P28472+P48169+P34903+P18505+P47869+P31644+Q16445). Kind of data set: Inhibition of agonist site of GABAA receptor at 10 uM. The class given is functional.
Data set [2] in a line: Inhibition of alpha-bungarotoxin insensitive nicotinic receptor at 1 nM.
Data set [3] deals with T1, Estrogen receptor (Homo sapiens) (UniProt Q92731+P03372). Nature of the data set: Inhibition of estrogen receptor at 1 nM. The class given is protein assay.
Data set [4] addresses T1, Estrogen receptor (Homo sapiens). Kind of data set: Inhibition of estrogen receptor at 100 nM. In kind it is protein assay.
The target of data set [5] is L-type calcium channel, dihydropyridine site (Homo sapiens, UniProt O60840+Q01668+Q13698+Q13936). Nature of the data set: Inhibitory activity at dihydropyridine site of Calcium channel L type at 10 uM. In kind it is protein assay.
For data set [6], the target named is Glutamate [NMDA] receptor (Homo sapiens) (UniProt Q05586+Q12879+Q13224+O15399+O60391+Q14957+Q8TCU5). Kind of data set: Inhibition of MK-801 site of glutamate receptor at 1 nM. In kind it is protein-complex assay.
Data set [7] can be described thus: Inhibitory activity at site 2 of sodium channel at 10 uM.
In data set [8] the target is T2, monoamine oxidase A (MAO-A) (Rattus norvegicus, UniProt P21396).
T2 sequence (P21396 whole entry): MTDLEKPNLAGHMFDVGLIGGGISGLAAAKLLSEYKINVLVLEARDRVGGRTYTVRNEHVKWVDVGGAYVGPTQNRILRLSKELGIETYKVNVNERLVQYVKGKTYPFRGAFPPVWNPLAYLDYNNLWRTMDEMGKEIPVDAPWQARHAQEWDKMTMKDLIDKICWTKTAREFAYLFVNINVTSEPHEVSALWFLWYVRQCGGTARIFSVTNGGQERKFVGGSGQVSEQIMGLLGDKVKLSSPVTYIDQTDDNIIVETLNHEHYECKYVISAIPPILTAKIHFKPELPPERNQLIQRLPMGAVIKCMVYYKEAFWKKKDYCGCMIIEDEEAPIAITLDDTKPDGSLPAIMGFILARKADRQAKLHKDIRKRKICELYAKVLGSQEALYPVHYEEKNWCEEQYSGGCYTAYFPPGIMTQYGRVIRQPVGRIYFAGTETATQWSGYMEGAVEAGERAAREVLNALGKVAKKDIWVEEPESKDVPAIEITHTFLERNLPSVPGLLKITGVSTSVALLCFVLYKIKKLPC
Nature of the data set: Inhibition of monoamine oxidase A in rat brain at 1 nM. In kind it is tissue-based.

The target in data set [9] is 5-hydroxytryptamine receptor 2A (Homo sapiens, UniProt P28223). In kind it is cell-based, CHO.
Chain of 5-hydroxytryptamine receptor 2A (Homo sapiens, UniProt P28223) (P28223 whole entry): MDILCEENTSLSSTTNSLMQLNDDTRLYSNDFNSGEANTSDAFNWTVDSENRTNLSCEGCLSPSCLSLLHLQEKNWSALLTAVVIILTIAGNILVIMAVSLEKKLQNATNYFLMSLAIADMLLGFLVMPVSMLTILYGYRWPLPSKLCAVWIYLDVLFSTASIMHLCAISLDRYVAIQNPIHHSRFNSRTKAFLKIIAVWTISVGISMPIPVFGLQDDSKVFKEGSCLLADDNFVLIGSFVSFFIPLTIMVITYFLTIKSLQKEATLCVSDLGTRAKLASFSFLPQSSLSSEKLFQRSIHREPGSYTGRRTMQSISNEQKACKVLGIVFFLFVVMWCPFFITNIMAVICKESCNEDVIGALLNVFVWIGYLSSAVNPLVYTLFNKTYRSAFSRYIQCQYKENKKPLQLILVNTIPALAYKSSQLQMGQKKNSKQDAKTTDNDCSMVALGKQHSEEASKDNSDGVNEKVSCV
The next data set is filed under the species Homo sapiens. Kind of data set: Inhibition of inositol triphosphate IP3 at 100 nM. In kind it is functional.
The target in data set [10] is T3, Atrial natriuretic peptide receptor 1 (Homo sapiens) (UniProt P16066).
T3 sequence (whole entry): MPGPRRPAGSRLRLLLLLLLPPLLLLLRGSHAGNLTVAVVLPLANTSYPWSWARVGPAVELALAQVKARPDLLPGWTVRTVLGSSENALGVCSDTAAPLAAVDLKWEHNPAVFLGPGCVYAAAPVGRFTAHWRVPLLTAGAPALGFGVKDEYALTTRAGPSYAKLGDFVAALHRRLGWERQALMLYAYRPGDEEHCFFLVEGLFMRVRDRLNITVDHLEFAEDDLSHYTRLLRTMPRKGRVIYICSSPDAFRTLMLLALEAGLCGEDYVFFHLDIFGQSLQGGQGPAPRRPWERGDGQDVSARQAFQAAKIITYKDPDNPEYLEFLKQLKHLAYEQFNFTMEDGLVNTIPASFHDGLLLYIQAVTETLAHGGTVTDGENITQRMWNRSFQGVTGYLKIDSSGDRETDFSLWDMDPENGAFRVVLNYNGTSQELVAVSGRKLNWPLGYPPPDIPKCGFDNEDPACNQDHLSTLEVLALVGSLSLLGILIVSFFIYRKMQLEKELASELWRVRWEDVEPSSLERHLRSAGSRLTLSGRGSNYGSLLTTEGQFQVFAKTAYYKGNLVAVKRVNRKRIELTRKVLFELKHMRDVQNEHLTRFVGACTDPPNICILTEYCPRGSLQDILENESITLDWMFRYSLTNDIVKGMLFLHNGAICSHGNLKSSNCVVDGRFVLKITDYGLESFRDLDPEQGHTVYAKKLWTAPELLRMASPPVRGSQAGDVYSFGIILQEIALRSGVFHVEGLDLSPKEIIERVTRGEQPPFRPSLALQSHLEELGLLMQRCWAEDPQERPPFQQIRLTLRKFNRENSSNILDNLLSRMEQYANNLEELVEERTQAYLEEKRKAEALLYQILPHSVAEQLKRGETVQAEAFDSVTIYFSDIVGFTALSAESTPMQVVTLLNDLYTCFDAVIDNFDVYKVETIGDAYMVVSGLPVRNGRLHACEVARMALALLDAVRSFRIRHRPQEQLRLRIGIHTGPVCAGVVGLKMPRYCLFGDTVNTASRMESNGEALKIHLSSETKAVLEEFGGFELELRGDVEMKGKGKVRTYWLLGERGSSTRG
Kind of data set: Inhibition of ANP A at 1 nM.

For data set [11], the target named is Platelet-activating factor receptor (Homo sapiens) (UniProt P25105). Kind of data set: Inhibition of PAF at 100 nM.
Chain of Platelet-activating factor receptor (Homo sapiens) (P25105 whole entry): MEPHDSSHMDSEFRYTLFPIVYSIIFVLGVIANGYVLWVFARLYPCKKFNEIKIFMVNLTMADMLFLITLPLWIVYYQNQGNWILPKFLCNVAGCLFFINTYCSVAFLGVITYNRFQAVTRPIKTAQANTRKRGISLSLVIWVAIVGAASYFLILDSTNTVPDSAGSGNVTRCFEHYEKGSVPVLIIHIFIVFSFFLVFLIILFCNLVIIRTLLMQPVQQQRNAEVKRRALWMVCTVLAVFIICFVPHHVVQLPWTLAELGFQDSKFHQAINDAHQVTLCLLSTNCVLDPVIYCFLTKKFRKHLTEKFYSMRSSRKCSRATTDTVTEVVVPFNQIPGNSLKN
For data set [12], the target named is 5-hydroxytryptamine receptor 2A (Rattus norvegicus) (UniProt P14842). Nature of the data set: (§1) Activity against 5HT2A mediated intracellular calcium mobilization by FLIPR in rat vascular smooth muscle cells. In kind it is functional, cell-based.
Chain of 5-hydroxytryptamine receptor 2A (Rattus norvegicus) (P14842 whole entry): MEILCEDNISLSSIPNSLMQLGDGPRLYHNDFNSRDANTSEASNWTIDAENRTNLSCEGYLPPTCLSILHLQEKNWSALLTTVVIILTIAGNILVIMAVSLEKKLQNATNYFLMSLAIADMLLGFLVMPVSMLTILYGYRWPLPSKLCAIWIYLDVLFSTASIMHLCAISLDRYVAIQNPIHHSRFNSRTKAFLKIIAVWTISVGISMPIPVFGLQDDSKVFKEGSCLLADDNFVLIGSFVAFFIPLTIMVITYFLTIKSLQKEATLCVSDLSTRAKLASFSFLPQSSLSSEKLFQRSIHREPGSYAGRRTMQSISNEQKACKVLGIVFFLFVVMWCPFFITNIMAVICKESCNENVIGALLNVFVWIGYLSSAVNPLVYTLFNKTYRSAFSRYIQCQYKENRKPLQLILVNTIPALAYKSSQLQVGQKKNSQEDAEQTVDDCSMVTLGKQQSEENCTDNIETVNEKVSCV
The target of data set [13] is 5-hydroxytryptamine receptor 2A (Rattus norvegicus, UniProt P14842). The data set is described as §1. In kind it is functional, cell-based.
Chain of 5-hydroxytryptamine receptor 2A (Rattus norvegicus, UniProt P14842) (P14842 whole entry): as above
Data set [14] deals with 5-hydroxytryptamine receptor 2B (Rattus norvegicus, UniProt P30994). Nature of the data set: Activity against 5HT2B receptor in longitudinal stomach fundus strips in wistar rats.
Chain of 5-hydroxytryptamine receptor 2B (P30994 whole entry): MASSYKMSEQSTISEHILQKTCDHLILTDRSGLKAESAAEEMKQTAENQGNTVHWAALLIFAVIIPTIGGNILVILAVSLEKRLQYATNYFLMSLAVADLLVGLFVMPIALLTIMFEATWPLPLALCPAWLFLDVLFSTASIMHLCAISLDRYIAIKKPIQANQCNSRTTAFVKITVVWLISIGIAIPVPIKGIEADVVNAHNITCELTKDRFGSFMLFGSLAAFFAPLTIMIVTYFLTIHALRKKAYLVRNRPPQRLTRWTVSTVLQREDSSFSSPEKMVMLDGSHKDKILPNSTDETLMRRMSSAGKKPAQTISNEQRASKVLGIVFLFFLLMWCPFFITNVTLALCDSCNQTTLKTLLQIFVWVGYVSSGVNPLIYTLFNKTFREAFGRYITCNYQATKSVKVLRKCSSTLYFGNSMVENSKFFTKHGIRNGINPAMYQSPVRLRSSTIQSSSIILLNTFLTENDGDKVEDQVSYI
For data set [15], the target named is T4, Alpha-2A adrenergic receptor (Homo sapiens, UniProt P08913).
T4 sequence (P08913 whole entry): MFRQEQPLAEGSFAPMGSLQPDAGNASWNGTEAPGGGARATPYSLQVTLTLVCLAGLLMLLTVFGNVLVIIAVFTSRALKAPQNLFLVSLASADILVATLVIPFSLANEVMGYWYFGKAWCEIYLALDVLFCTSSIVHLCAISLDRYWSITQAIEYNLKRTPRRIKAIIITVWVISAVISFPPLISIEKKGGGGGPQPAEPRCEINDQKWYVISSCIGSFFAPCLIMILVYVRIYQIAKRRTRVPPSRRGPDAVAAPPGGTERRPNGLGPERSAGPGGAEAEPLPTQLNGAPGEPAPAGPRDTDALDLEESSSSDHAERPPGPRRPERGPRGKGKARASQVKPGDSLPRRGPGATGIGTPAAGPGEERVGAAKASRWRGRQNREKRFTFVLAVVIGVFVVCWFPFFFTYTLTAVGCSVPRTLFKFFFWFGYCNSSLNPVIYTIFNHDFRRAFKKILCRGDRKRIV
Kind of data set: Activity at adrenergic alpha2A receptor expressed in human clonic adenocarcinoma HT29 cell by […]. The class given is functional, cell-based, HT-29.

Data set [16] concerns the target Adrenergic receptor beta (Homo sapiens) (UniProt P08588+P07550+P13945). Nature of the data set: Inhibition of non selective binding to adrenergic beta receptor at 1 nM. The class given is protein assay.

As to `C[C@H](N)Cn1ncc2ccc(O)cc21`, the inhibition in data set [1] is 6.69%; in data set [2], 7.15%; in data set [3] it was 10.8%; in data set [4], 13.3%; in data set [6], -7.45%; in data set [7] it was -0.61%. Moreover, the inhibition in the data set filed under Homo sapiens is 8.56%; in data set [10] it was -5.65%; in data set [11], 24.8%; in [16], -5.75%. For the same compound, the inhibition at 10 µM in [5] came out at 15.2%. For the same compound, the inhibition at 0.001 µM in [8] was -14.4%. Also, in data set [9], the inhibition constant (Ki) came to 12 nM. For the same compound, in data set [12], the Emax worked out at 81%. For the same compound, the EC50 in data set [13] stood at 42.7 nM; in data set [14], 2 nM; in data set [15], 2600 nM.

The values are drawn from ChEMBL document CHEMBL1148572, “1-((S)-2-aminopropyl)-1H-indazol-6-ol: a potent peripherally acting 5-HT2 receptor agonist with ocular hypotensive activity” (J Med Chem, 2006).
